The values below come from patent US8361998B2, “Compounds and their use as IKACh blockers” (AstraZeneca AB, priority 2010, dated 2013).

Where only a bound is given, the exact number is not on record here.

In the first assay the target is T1, human cardiac ion channel proteins hKir3.1/Kir3.4 (Homo sapiens, UniProt P48544+P48549).
T1 construct: expressed in transfected cells
T1 sequence (P48549 1-501): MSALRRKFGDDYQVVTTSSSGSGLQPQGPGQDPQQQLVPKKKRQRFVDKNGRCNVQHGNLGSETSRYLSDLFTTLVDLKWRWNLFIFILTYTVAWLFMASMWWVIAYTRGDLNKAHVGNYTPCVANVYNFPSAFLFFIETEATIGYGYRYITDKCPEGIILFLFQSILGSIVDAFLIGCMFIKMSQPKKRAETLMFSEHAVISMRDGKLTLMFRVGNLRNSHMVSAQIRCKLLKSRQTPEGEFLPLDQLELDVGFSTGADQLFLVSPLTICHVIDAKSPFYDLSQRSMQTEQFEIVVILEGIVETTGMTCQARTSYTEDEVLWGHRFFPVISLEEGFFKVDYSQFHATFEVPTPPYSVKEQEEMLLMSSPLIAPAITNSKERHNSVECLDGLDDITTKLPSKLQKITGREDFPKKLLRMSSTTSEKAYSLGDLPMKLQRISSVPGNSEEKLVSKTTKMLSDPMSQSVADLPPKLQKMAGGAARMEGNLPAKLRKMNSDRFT
T1 sequence (P48544 1-419): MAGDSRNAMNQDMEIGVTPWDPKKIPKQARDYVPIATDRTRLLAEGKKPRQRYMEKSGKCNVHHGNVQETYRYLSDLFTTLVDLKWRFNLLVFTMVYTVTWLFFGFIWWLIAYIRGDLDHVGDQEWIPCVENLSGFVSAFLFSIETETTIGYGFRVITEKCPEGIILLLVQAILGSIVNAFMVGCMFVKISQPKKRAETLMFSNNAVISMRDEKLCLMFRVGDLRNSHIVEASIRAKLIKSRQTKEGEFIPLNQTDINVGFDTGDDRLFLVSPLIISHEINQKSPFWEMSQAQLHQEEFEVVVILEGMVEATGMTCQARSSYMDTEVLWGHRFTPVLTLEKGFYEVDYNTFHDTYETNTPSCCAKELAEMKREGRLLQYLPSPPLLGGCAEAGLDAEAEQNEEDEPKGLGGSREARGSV
The assay can be described thus: Atomic Absorption Screening (AAS) Rb efflux assay of hKir3.1/Kir3.4 block, carbachol/high K+ stimulated, 10-pt or 7-pt CR. Format: cell-based. Particulars: 7-pt CR (0.037 to 27 μmol/L), AAS Rb efflux, CHO-K1 cells expressing hKir3.1/Kir3.4; mean of >3 replicates; read-out: IKACh IC50 7-pt CR, AAS. An excerpt:
Human KCNJ3 encoding Kir3.1 (Genbank acc. No. NM_002239) was inserted between EcoRI and NotI in the pIRESneo3 vector (Clontech Laboratories, Inc. CA, USA). Human KCNJ5 encoding Kir3.4 (Genbank Acc. No. BC069482) was inserted between EcoR1 and Not1 in the pIRESpuro3 vector (Clontech Laboratories, Inc. CA, USA). A Kozak sequence (GCCACC) was introduced before the start codon ATG of both constructs. Chinese Hamster Ovary K1, CHO-FLP/IN, cells (Invitrogen Corporation, Paisley, UK) were transfected simultaneously using Lipofectamine 2000 reagent (Invitrogen Corporation, Paisley, UK). Geneticin 600 μg/mL (Invitrogen Corporation, Paisley, UK) and puromycin 3 μg/mL (BD Bioscience) were added to the cell culture medium 3 days after transfection. Two weeks after transfection, colonies had appeared and were manually picked and sorted to one cell per well in a 96-well plate. Cells were then tested for Kir3.1 and Kir3.4 expression using membrane potential assay, Western Blot and Immunocytochemistry. […] The cell line was re-sorted by flow cytometry and resulting clones were assayed electrophysiologically using IonWorks (Molecular Devices) and later validated on the Q-Patch (Sophion A/S).
The stable cell line was cultured in DMEM/F12 with Glutamax 1 (Invitrogen Corporation, Paisley, UK), supplemented with foetal bovine serum 10%, puromycin 3 μg/mL, hygromycin 300 μg/mL and geneticin 600 μg/mL (Invitrogen Corporation, Paisley, UK). Care was taken not to seed cells at too low density and cells were passaged at approximately 70-80% confluency. Cells used for patch-clamp experiments were prepared by washing using PBS (—Mg, —Ca^2+), 2 times, detached using Accutase (Sigma). For Q-Patch measurements, storage medium was prepared fresh by adding 1.25 mL of 1M Hepes (GibcoBRL) to 50 mL CHO-SFM II medium (GibcoBRL) and detached cells were diluted to 2 million cells/mL in this medium. Frozen (Cryopreserved) cells were used for Atomic Absorption Screening (AAS) and plated poly-D-lysine 384-well plates (Greiner) at a density of 11,000-13,000 cells/well, the day before assay.
The blocking effects of compounds on the human cardiac ion channel proteins hKir3.1/Kir3.4 were assessed in CHO-K1 cells stably expressing the channel proteins using Atomic Absorption Screening (AAS). Cells were washed and then loaded with 25 μL Rb-loading buffer for three hours at 37° C. After that, the cells were washed again and 25 μL of diluted compound was transferred to the cell plate, incubated for 5 min in RT, and then […] of Carbachol/high K+ (10 μM carbachol and 20 mM KCl final concentration) buffer added to stimulate the cells and open the Kir3.1/Kir3.4 channel. After 10 min stimulation, […] of the supernatant was transferred to a new microplate, 45 μL washing buffer added to the supernatant and the level of Rb in the supernatant was then measured using an Aurora ICR 8000. Compounds were studied at concentrations ranging from 0.003 to 67 μmol/L (dilutions by three, 10-pt CR) or from 0.037 to 27 μmol/L (dilutions by three, 7-pt CR).
Stock solutions of compounds were prepared in DMSO 10 mM and stored at RT. Buffers used for AAS contained (in mM): HEPES 20, NaCl 150, MgCl2 1.0, CaCl2 2.0 and NaH2PO4 0.8 and Glucose 10 (wash 1) or KCl 5 and Glucose 5 (wash 2) or KCl 5 (dilution buffer). The High K^+ channel opener buffer contained (in mM): HEPES 20, NaCl 130, MgCl2 1.0, CaCl2 2.0 and NaH2PO4 0.8 together with KCl 20. Solutions used for Q-Patch (extracellular) in mM: NaCl 145, KCl 4, CaCl2 2.0, MgCl2 1.0, HEPES 10 and glucose 10. The high K^+ extra cellular solution used for Q-Patch in mM: NaCl 96.7, KCl 50.7, CaCl2 2.0, MgCl2 1.0, HEPES 10 and glucose 10 while the intra cellular solution used was (in mM): KCl 120, CaCl2 5.374, MgCl2 1.75, EGTA 10, KOH 3.125, HEPES 10, Na2ATP 4.
Results are given as mean IC50 of >4 replicates (10-pt CR, AAS) or >3 replicates (7-pt CR, AAS). Some of the data in Table 1 are mean values of two or more runs. […]
On to `Cc1cc(C(=O)N(C)[C@H](CN2CCCC2)C(C)C)ccc1Cl` [Example 16.50, (S)-4-Chloro-N,3-dimethyl-N-(3-methyl-1-(pyrrolidin-1-yl)butan-2-yl)benzamide], for which the half-inhibitory concentration (IC50) came to 0.42 µM.

Turning to `CC(C)[C@H](CN1CCCC1)N(C)C(=O)c1ccc(Br)c(F)c1` [Example 16.60, (R)-4-Bromo-3-fluoro-N-methyl-N-(3-methyl-1-(pyrrolidin-1-yl)butan-2-yl)benzamide], the IC50 amounted to 16 µM.

On to `CC(C)c1ccc(C(=O)N(C)[C@H](CN2CCCC2)C(C)C)cc1` [Example 16.49, (S)-4-Isopropyl-N-methyl-N-(3-methyl-1-(pyrrolidin-1-yl)butan-2-yl)benzamide], for which the IC50 is 7.1 µM.

On to `Cc1cccc(C(=O)N(C)[C@H](CN2CCCCC2)C(C)C)c1` [Example 16.29, N,3-Dimethyl-N-[(1S)-2-methyl-1-(piperidin-1-ylmethyl)propyl]benzamide], for which the IC50 stood at 8.8 µM.

As to `CC(C)[C@@H](CN1CCCC1)N(C)C(=O)c1ccc(Cl)cc1F` [Example 16.53, (S)-4-Chloro-2-fluoro-N-methyl-N-(3-methyl-1-(pyrrolidin-1-yl)butan-2-yl)benzamide], the IC50 is 0.9 µM.

On to `CC(C)[C@H](CN1CCCC1)N(C)C(=O)c1ccc(Cl)cc1F` [Example 16.59, (R)-4-Chloro-2-fluoro-N-methyl-N-(3-methyl-1-(pyrrolidin-1-yl)butan-2-yl)benzamide], for which the IC50 is 18 µM.

The same assay, now with this note: 10-pt CR (0.003 to 67 μmol/L), AAS Rb efflux, CHO-K1 cells expressing hKir3.1/Kir3.4; mean of >4 replicates; read-out: IKACh IC50 10-pt CR, AAS.
On to `CN(C(=O)c1ccc(F)c(F)c1)[C@H](CN1CC(O)(C2CC2)C1)C1CC1` [Example 9.3, (S)-N-(1-Cyclopropyl-2-(3-cyclopropyl-3-hydroxyazetidin-1-yl)ethyl)-3,4-difluoro-N-methylbenzamide], for which the IC50 was found to be 3.1 µM.

As for `CN(C(=O)c1ccc(F)c(Cl)c1)C(CN1CC(O)C1)C1CCCC1` (single isomer, unassigned) [32.7, isomer 2], the IC50 was 0.16 µM.

Take `CCCC[C@@H](CN1CC(O)C1)N(C)C(=O)c1ccc(Cl)cc1` [Example 33.1, (S)-4-chloro-N-(1-(3-hydroxyazetidin-1-yl)hexan-2-yl)-N-methylbenzamide]: the half-inhibitory concentration (IC50) was 0.12 µM.

Turning to `CN(C(=O)c1ccc(F)cc1Cl)C(CN1CC(O)C1)C1CCCC1` (single isomer, unassigned) [32.6, isomer 2], the IC50 came to 2.3 µM.

As for `CC(C)c1ccc(C(=O)N(C)[C@H](CN2CCCC2)C(C)C)cc1` [Example 16.49, (S)-4-Isopropyl-N-methyl-N-(3-methyl-1-(pyrrolidin-1-yl)butan-2-yl)benzamide], the IC50 was 9.7 µM.

As to `CC(C)[C@@H](CN1CCC(O)CC1)N(C)C(=O)c1ccc(Cl)cc1` [Example 27, (S)-4-Chloro-N-(1-(4-hydroxypiperidin-1-yl)-3-methylbutan-2-yl)-N-methylbenzamide], the IC50 came out at 1.1 µM.

Take `Cc1cccc(C(=O)N(C)[C@H](CN2CCCCC2)C(C)C)c1` [Example 16.29, N,3-Dimethyl-N-[(1S)-2-methyl-1-(piperidin-1-ylmethyl)propyl]benzamide]: the IC50 stood at 9.3 µM.

On to `CN(C(=O)c1ccc(F)c(F)c1)[C@H](CN1CC(O)C1)C1CCC1` [Example 39.3, (S)—N-(1-Cyclobutyl-2-(3-hydroxyazetidin-1-yl)ethyl)-3,4-difluoro-N-methylbenzamide], for which the IC50 came to 0.41 µM.

For the compound `COCCN(C(=O)c1ccc(Cl)cc1)[C@H](CN1CCCC1)C(C)C` [Example 15.4, (S)-4-Chloro-N-(2-methoxyethyl)-N-(3-methyl-1-(pyrrolidin-1-yl)butan-2-yl)benzamide], the IC50 was 5.7 µM.

For the compound `CN(C(=O)c1ccc(C(F)(F)F)cc1)[C@H](CN1CC(O)C1)C1CCC1` [Example 39.8, (S)—N-(1-Cyclobutyl-2-(3-hydroxyazetidin-1-yl)ethyl)-N-methyl-4-(trifluoromethyl)benzamide], the IC50 was 0.23 µM.

The assay is the same for the next values; noted with them: printed as IC50 >67 μM in the 10-pt CR assay or IC50 >27 μM in the 7-pt CR assay; assay format per compound not stated; read-out: IC50.
With `Cc1cc(C(=O)N(C)C(C)(C)CN2CCCC2)ccc1F` [4-Fluoro-N,3-dimethyl-N-(2-methyl-1-(pyrrolidin-1-yl)propan-2-yl)benzamide], the IC50 was over 27 µM.

As for `COc1ccc(C(=O)N(C)[C@H](CN2CCC2)C(C)C)cc1F` [(S)-N-(1-(Azetidin-1-yl)-3-methylbutan-2-yl)-3-fluoro-4-methoxy-N-methylbenzamide], the IC50 is over 27 µM.

`CC(C)[C@@H](CCN1CCCC1)N(C)C(=O)c1ccc(Cl)cc1F` [4-Chloro-2-fluoro-N-methyl-N-[(1R)-2-methyl-1-(2-pyrrolidin-1-ylethyl)propyl]benzamide]: the IC50 is over 27 µM.
